Experimental data taken from patent publication US20070093552A1, “Early insulin secretion stimulator” (priority 2003, published 2007).

Assays:
Assay type in all cases: in vivo, human
test subjects = test: Glucose tolerance test after administration of corosolic acid, banaba extract or placebo, blood glucose level assayed (Test Example 2); details: 10 mg oral, 75 g glucose load, p<0.05, 35 subjects
Description: The following test was conducted to confirm that corosolic acid has a hypoglycemic effect. A glucose tolerance test was performed after administration of corosolic acid, banaba extract or a placebo, in a double-blind crossover manner, and the blood glucose level (plasma glucose concentration) was assayed.
(§1) First, 35 test subjects were orally administered corosolic acid (10 mg, ≧99% purity), banaba extract (trade name: COROSOLIA M, product of Use Techno Corporation; administered at 10 mg of corosolic acid) or a placebo, and blood was sampled immediately thereafter with the blood glucose level at that time designated as the value at 0 minutes. Immediately after blood sampling, 75 g of glucose was orally administered to each test subject to start a glucose tolerance test, and blood was sampled after periods of 30 minutes, 60 minutes, 90 minutes, 120 minutes and 180 minutes for measurement of the blood glucose level.
FIG. 2 is a graph showing blood glucose levels during the glucose tolerance test. The horizontal axis represents time (min) after start of the glucose tolerance test, and the vertical axis represents plasma glucose concentration (mg/dL). In the graph, (c) is a case with administration of corosolic acid, (d) is a case with administration of banaba leaf extract and (e) is a case with administration of the placebo.

[1] = system: borderline diabetic patients; test: Changes in blood glucose and blood insulin levels after fasting, absence of glucose load (Test Example 3); details: fasted, 10 mg; for I: blood insulin level: unit assumed
Description: Three borderline diabetic patients (person, person and person) were instructed to fast from 8:00 pm (to ensure absence of glucose load), and were administered a placebo once or the test agent (corosolic acid) once at 9:00 am on the following day, after which the changes in blood glucose levels and blood insulin levels were measured. The test subjects were given absolutely no information regarding placebo or test agent (crossover, double-blind). The corosolic acid was administered in a single 10 mg dose, and each test was conducted twice.
FIG. 3 is a graph showing changes in blood glucose levels with administration of corosolic acid and a placebo in the absence of a glucose load, and FIG. 4 is a graph showing changes in blood insulin levels with administration of corosolic acid and a placebo in the absence of a glucose load.

[2] = system: borderline diabetic patients; test: Glucose tolerance test after administration of corosolic acid or placebo, blood insulin level (IRI) assayed (Test Example 1); details: 10 mg oral, 75 g glucose load, p<0.05, 31 patients
Description: A glucose tolerance test was performed after administration of corosolic acid or a placebo, in a double-blind crossover manner, and the blood insulin level (IRI: immunoreactive insulin) was assayed.
as §1, with “First, 31 borderline diabetic patients as” for “First, 35”, “≧99% purity)” for “≧99% purity), banaba extract (trade name: COROSOLIA M, product of Use Techno Corporation; administered at 10 mg of corosolic acid)”, “blood insulin” for “blood glucose”
FIG. 1 is a graph showing the blood insulin levels during the glucose tolerance test. The horizontal axis represents time (min) after start of the glucose tolerance test, and the vertical axis represents IRI (μU/mL). In the graph, (a) is a case with administration of corosolic acid and (b) is a case with administration of the placebo.

[3] = 120 minutes after start of glucose tolerance test

C[C@H]1[C@H](C)CC[C@]2(C(=O)O)CC[C@]3(C)C(=CC[C@@H]4[C@@]5(C)C[C@@H](O)[C@H](O)C(C)(C)[C@@H]5CC[C@]43C)[C@H]12 [corosolic acid]
blood glucose level compared to placebo (test subjects; 90 minutes after start of glucose tolerance test): significant decrease | blood glucose level compared to placebo (test subjects; [3]): significant decrease | G: blood glucose level ([1]; test subject A, after 0 min): 110 mg/dL | I: blood insulin level ([1]; test subject A, after 0 min): 9 µU/mL | I: blood insulin level ([1]; test subject A, after 30 min): 6.9 µU/mL | I: blood insulin level ([1]; test subject A, after 60 min): 6.6 µU/mL | I: blood insulin level ([1]; test subject A, after 90 min): 5.9 µU/mL | I: blood insulin level ([1]; test subject A, after 120 min): 6.6 µU/mL | I: blood insulin level ([1]; test subject A, after 180 min): 5.1 µU/mL | I: blood insulin level ([1]; test subject B, after 0 min): 2.5 µU/mL | I: blood insulin level ([1]; test subject B, after 30 min): 2.6 µU/mL | I: blood insulin level ([1]; test subject B, after 60 min): 3 µU/mL | I: blood insulin level ([1]; test subject B, after 90 min): 2 µU/mL | G: blood glucose level ([1]; test subject B, after 120 min): 150 mg/dL | I: blood insulin level ([1]; test subject B, after 120 min): 3.4 µU/mL | I: blood insulin level ([1]; test subject B, after 180 min): 2.4 µU/mL | G: blood glucose level ([1]; test subject C, after 0 min): 90 mg/dL | I: blood insulin level ([1]; test subject C, after 0 min): 4.5 µU/mL | G: blood glucose level ([1]; test subject C, after 30 min): 90 mg/dL | I: blood insulin level ([1]; test subject C, after 30 min): 4.1 µU/mL | G: blood glucose level ([1]; test subject C, after 60 min): 88 mg/dL | I: blood insulin level ([1]; test subject C, after 60 min): 3.9 µU/mL | G: blood glucose level ([1]; test subject C, after 90 min): 86 mg/dL | I: blood insulin level ([1]; test subject C, after 90 min): 4.9 µU/mL | G: blood glucose level ([1]; test subject C, after 120 min): 86 mg/dL | I: blood insulin level ([1]; test subject C, after 120 min): 4 µU/mL | G: blood glucose level ([1]; test subject C, after 180 min): 81 mg/dL | I: blood insulin level ([1]; test subject C, after 180 min): 4 µU/mL | blood insulin level compared to placebo ([2]; 30 minutes after start of glucose tolerance test): significant increase | blood insulin level compared to placebo [2, 3]: significant drop
